The values below are quoted from earlier work in publication PMC10646941 (Chemical Science, 2023).

In the data set the target is SARS-CoV-2 3C-Like Protease.

With `CC(C)(C)[C@H](NC(=O)C(F)(F)F)C(=O)N1C[C@H]2[C@@H]([C@H]1C(=O)N[C@H](C#N)C[C@@H]1CCNC1=O)C2(C)C` [nirmatrelvir], the kinact/Ki was 55000 M⁻¹ s⁻¹.
